According to ChEMBL document CHEMBL1129177, “Novel analogs of cyclic-ADP-ribose: 9-Cyclic etheno-ADP-ribose and cyclic etheno-CDP-ribose” (Bioorg Med Chem Lett, 1996):

species on record: Rattus norvegicus; test: Dose response for [Ca2+] release from rat brain microsomes was determined; type: functional

SMILES | EC50
Nc1c2ncn3c2nc[n+]1[C@@H]1O[C@H](COP(=O)([O-])OP(=O)(O)OC[C@H]2O[C@@H]3[C@H](O)[C@@H]2O)[C@@H](O)[C@H]1O | 22 µM
O=P(O)(O)O[C@@H]1[C@H](O)[C@H](O)[C@@H](OP(=O)(O)O)[C@H](OP(=O)(O)O)[C@H]1O [INS(1,4,5)P3] | 0.09 µM
O=P1([O-])OC[C@H]2OC([C@H](O)[C@@H]2O)[n+]2ccn3cnc4c(ncn4C4O[C@H](COP(=O)(O)O1)[C@@H](O)[C@H]4O)c32 | 8 µM
